According to US20240360178A1, “MACROCYCLIC IMMUNOMODULATORS” (Bristol-Myers Squibb Company, priority 2021, published 2024):
Positions of bridges follow the written chain, without caps; N, C: chain ends. Non-standard residues stand in square brackets, D forms with d. Residues, ends and D or L forms follow the SMILES beside them. ξ: configuration not given here. *: point of attachment. Ala(1H-tetrazol-5-yl) = N[C@@H](Cc1nnn[nH]1)C(=O)O; Phe(4-COOH) = N[C@@H](Cc1ccc(C(=O)O)cc1)C(=O)O; Bip = N[C@@H](Cc1ccc(-c2ccccc2)cc1)C(=O)O; Ala(CN) = N#CC[C@H](N)C(=O)O; Carboxymethyl = O=C(O)C*; NMeA = CN[C@@H](C)C(=O)O; Orn = NCCC[C@H](N)C(=O)O; Dab = NCC[C@H](N)C(=O)O; ξS = NC(CO)C(=O)O

biological target: T1, human PD-1 (Jurkat-PD-1 cells) / PE-labeled human PD-L1-Ig (Homo sapiens, UniProt Q15116); test: Jurkat-PD-1 Cell Binding High-Content Screening Assay (CBA); Jurkat hPD1-PDL1 assay; conditions: Jurkat cell line over-expressing human PD-1; PE-labeled PD-L1-Ig 20 nM final; compound incubated 2 hours at 37° C.; read-out: Jurkat HPD1-PDL1 IC50
T1 construct: expressed in transfected cells; host or cells: Jurkat cell line over-expressing human PD-1
T1 sequence (Q15116 25-288): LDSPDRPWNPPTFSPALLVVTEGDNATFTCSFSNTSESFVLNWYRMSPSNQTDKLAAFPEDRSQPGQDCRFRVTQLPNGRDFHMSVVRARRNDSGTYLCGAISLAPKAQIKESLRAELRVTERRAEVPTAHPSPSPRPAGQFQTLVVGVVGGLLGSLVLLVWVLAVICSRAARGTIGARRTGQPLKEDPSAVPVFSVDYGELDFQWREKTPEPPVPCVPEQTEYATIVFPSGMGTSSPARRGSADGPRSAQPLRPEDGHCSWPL
Procedure, shortened: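 Compound was added to Jurkat-PD-1 cells in DMEM plus 10% fetal calf serum and incubated 2 hours at 37° C. Binding of phycoerythrin-conjugated PD-L1-Ig (20 nM final) to the cells was imaged.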

Compound | IC50 [nM]
CC(C)C[C@@H]1NC(=O)[C@H](Cc2c[nH]c3ccccc23)NC(=O)[C@H](CC(=O)O)NC(=O)[C@H](Cc2ccc(O)cc2)NC(=O)[C@H](Cc2ccccc2)NC(=O)CSC[C@@H](C(=O)N[C@@H](C)C(N)=O)NC(=O)[C@H]([C@@H](C)O)NC(=O)[C@H](C(C)C)NC(=O)[C@H](CC(C)C)NC(=O)[C@H](CCN)NC(=O)[C@H]2CCCN2C(=O)[C@H](CCN)NC(=O)[C@H](C(C)C)NC(=O)[C@H](Cc2ccc(-c3ccccc3)cc2)NC1=O [Example 1416] ({CH2CO}-FYDWL[Bip]V[Dab][dP][Dab]LVTCA-NH2; thioether N-14) | 240
CC(C)C[C@@H]1NC(=O)[C@H](Cc2c[nH]c3ccccc23)NC(=O)[C@H](CC(=O)O)NC(=O)[C@H](Cc2ccc(O)cc2)NC(=O)[C@H](Cc2ccccc2)NC(=O)CSC[C@@H](C(=O)N[C@@H](C)C(N)=O)NC(=O)[C@H]([C@@H](C)O)NC(=O)[C@H](C(C)C)NC(=O)[C@H](CC(C)C)NC(=O)[C@H](CCN)NC(=O)[C@H]2CCCN2C(=O)[C@H](CCCN)NC(=O)[C@H](C(C)C)NC(=O)[C@H](Cc2ccc(-c3ccccc3)cc2)NC1=O [Example 1422] ({CH2CO}-FYDWL[Bip]V[Orn][dP][Dab]LVTCA-NH2; thioether N-14) | 140
CC(C)C[C@@H]1NC(=O)[C@H](Cc2c[nH]c3ccccc23)NC(=O)[C@H](CC(=O)O)NC(=O)[C@H](Cc2ccc(O)cc2)NC(=O)[C@H](CC(N)=O)NC(=O)CSC[C@@H](C(=O)NCC(N)=O)NC(=O)[C@H]([C@@H](C)O)NC(=O)[C@H](C(C)C)NC(=O)[C@H](CC(C)C)NC(=O)[C@H](CC(N)=O)NC(=O)[C@H]2CCCN2C(=O)[C@H](CCCN)NC(=O)[C@H](C(C)C)NC(=O)[C@H](Cc2ccc(-c3ccccc3)cc2)NC1=O [Example 1424] ({CH2CO}-NYDWL[Bip]V[Orn][dP]NLVTCG-NH2; thioether N-14) | 660
CC(C)C[C@@H]1NC(=O)[C@H](Cc2c[nH]c3ccccc23)NC(=O)[C@H](CC(=O)O)NC(=O)[C@H](Cc2ccc(O)cc2)NC(=O)[C@H](CC(N)=O)NC(=O)CSC[C@@H](C(=O)N[C@@H](C)C(N)=O)NC(=O)[C@H]([C@@H](C)O)NC(=O)[C@H](C(C)C)NC(=O)[C@H](CC(C)C)NC(=O)[C@H](CC(N)=O)NC(=O)[C@H]2CCCN2C(=O)[C@H](CCCN)NC(=O)[C@H](C(C)C)NC(=O)[C@H](Cc2ccc(-c3ccccc3)cc2)NC1=O [Example 1426] ({CH2CO}-NYDWL[Bip]V[Orn][dP]NLVTCA-NH2; thioether N-14) | 220
CC(C)C[C@@H]1NC(=O)[C@H](Cc2c[nH]c3ccccc23)NC(=O)[C@H](Cc2nn[nH]n2)NC(=O)[C@H](Cc2ccc(O)cc2)NC(=O)[C@H](Cc2ccccc2)NC(=O)CSC[C@@H](C(=O)N[C@@H](C)C(N)=O)NC(=O)[C@H](CO)NC(=O)[C@H](C(C)C)NC(=O)[C@H](CC(C)C)NC(=O)[C@H](CC(N)=O)NC(=O)[C@H]2CCCN2C(=O)[C@H](C)N(C)C(=O)[C@H](C(C)C)NC(=O)[C@H](Cc2ccc(-c3ccccc3)cc2)NC1=O [Example 1428] ({CH2CO}-FY[Ala(1H-tetrazol-5-yl)]WL[Bip]V[NMeA][dP]NLVSCA-NH2; thioether N-14) | 370
CC(C)C[C@@H]1NC(=O)[C@H](Cc2c[nH]c3ccccc23)NC(=O)[C@H](CC#N)NC(=O)[C@H](Cc2ccc(O)cc2)NC(=O)[C@H](Cc2ccccc2)NC(=O)CSC[C@@H](C(=O)N[C@@H](C)C(N)=O)NC(=O)[C@H](CO)NC(=O)[C@H](C(C)C)NC(=O)[C@H](CC(C)C)NC(=O)[C@H](CC(N)=O)NC(=O)[C@H]2CCCN2C(=O)[C@H](C)N(C)C(=O)[C@H](C(C)C)NC(=O)[C@H](Cc2ccc(-c3ccccc3)cc2)NC1=O [Example 1429] ({CH2CO}-FY[Ala(CN)]WL[Bip]V[NMeA][dP]NLVSCA-NH2; thioether N-14) | 10
CC(C)C[C@@H]1NC(=O)[C@H](Cc2c[nH]c3ccccc23)NC(=O)[C@H](CC(=O)O)NC(=O)[C@H](Cc2ccc(C(=O)O)cc2)NC(=O)[C@H](Cc2ccc(OCC(=O)O)cc2)NC(=O)CSC[C@@H](C(=O)N[C@@H](C)C(N)=O)NC(=O)[C@H](CO)NC(=O)[C@H](C(C)C)NC(=O)[C@H](CC(C)C)NC(=O)[C@H](CC(N)=O)NC(=O)[C@H]2CCCN2C(=O)[C@H](C)N(C)C(=O)[C@H](C(C)C)NC(=O)[C@H](Cc2ccc(-c3ccccc3)cc2)NC1=O [Example 1430] ({CH2CO}-Y(Carboxymethyl)[Phe(4-COOH)]DWL[Bip]V[NMeA][dP]NLVSCA-NH2; thioether N-14) | 80

The remaining lines, values ahead:

IC50 [nM] | Compound
320 | CC(C)C[C@@H]1NC(=O)[C@H](Cc2c[nH]c3ccccc23)NC(=O)[C@H](CC(=O)O)NC(=O)[C@H](Cc2ccc(O)cc2)NC(=O)[C@H](Cc2ccccc2)NC(=O)CSC[C@@H](C(=O)NCC(N)=O)NC(=O)[C@H]([C@@H](C)O)NC(=O)[C@H](C(C)C)NC(=O)[C@H](CC(C)C)NC(=O)[C@H](CCN)NC(=O)[C@H]2CCCN2C(=O)[C@H](CCN)NC(=O)[C@H](C(C)C)NC(=O)[C@H](Cc2ccc(-c3ccccc3)cc2)NC1=O [Example 1414] ({CH2CO}-FYDWL[Bip]V[Dab][dP][Dab]LVTCG-NH2; thioether N-14)
80 | CC(C)C[C@@H]1NC(=O)[C@H](Cc2c[nH]c3ccccc23)NC(=O)[C@H](CC(=O)O)NC(=O)[C@H](Cc2ccc(O)cc2)NC(=O)[C@H](Cc2ccccc2)NC(=O)CSC[C@@H](C(=O)N[C@@H](C)C(N)=O)NC(=O)C(CO)NC(=O)[C@H](C(C)C)NC(=O)[C@H](CC(C)C)NC(=O)[C@H](CCN)NC(=O)[C@H]2CCCN2C(=O)[C@H](CCN)NC(=O)[C@H](C(C)C)NC(=O)[C@H](Cc2ccc(-c3ccccc3)cc2)NC1=O (stereo partly shown) [Example 1415] ({CH2CO}-FYDWL[Bip]V[Dab][dP][Dab]LV[ξS]CA-NH2; thioether N-14)
70 | CC(C)C[C@@H]1NC(=O)[C@H](Cc2c[nH]c3ccccc23)NC(=O)[C@H](CC(=O)O)NC(=O)[C@H](Cc2ccc(O)cc2)NC(=O)[C@H](Cc2ccccc2)NC(=O)CSC[C@@H](C(=O)NCC(N)=O)NC(=O)[C@H](CO)NC(=O)[C@H](C(C)C)NC(=O)[C@H](CC(C)C)NC(=O)[C@H](CCN)NC(=O)[C@H]2CCCN2C(=O)[C@H](CCN)NC(=O)[C@H](C(C)C)NC(=O)[C@H](Cc2ccc(-c3ccccc3)cc2)NC1=O [Example 1417] ({CH2CO}-FYDWL[Bip]V[Dab][dP][Dab]LVSCG-NH2; thioether N-14)
210 | CC(C)C[C@@H]1NC(=O)[C@H](Cc2c[nH]c3ccccc23)NC(=O)[C@H](CC(=O)O)NC(=O)[C@H](Cc2ccc(O)cc2)NC(=O)[C@H](Cc2ccccc2)NC(=O)CSC[C@@H](C(=O)N[C@@H](C)C(N)=O)NC(=O)[C@H]([C@@H](C)O)NC(=O)[C@H](C(C)C)NC(=O)[C@H](CC(C)C)NC(=O)[C@H](CC(N)=O)NC(=O)[C@H]2CCCN2C(=O)[C@H](CCCN)NC(=O)[C@H](C(C)C)NC(=O)[C@H](Cc2ccc(-c3ccccc3)cc2)NC1=O [Example 1418] ({CH2CO}-FYDWL[Bip]V[Orn][dP]NLVTCA-NH2; thioether N-14)
120 | CC(C)C[C@@H]1NC(=O)[C@H](Cc2c[nH]c3ccccc23)NC(=O)[C@H](CC(=O)O)NC(=O)[C@H](Cc2ccc(O)cc2)NC(=O)[C@H](Cc2ccccc2)NC(=O)CSC[C@@H](C(=O)NCC(N)=O)NC(=O)C(CO)NC(=O)[C@H](C(C)C)NC(=O)[C@H](CC(C)C)NC(=O)[C@H](CC(N)=O)NC(=O)[C@H]2CCCN2C(=O)[C@H](CCCN)NC(=O)[C@H](C(C)C)NC(=O)[C@H](Cc2ccc(-c3ccccc3)cc2)NC1=O (stereo partly shown) [Example 1419] ({CH2CO}-FYDWL[Bip]V[Orn][dP]NLV[ξS]CG-NH2; thioether N-14)
130 | CC(C)C[C@@H]1NC(=O)[C@H](Cc2c[nH]c3ccccc23)NC(=O)[C@H](CC(=O)O)NC(=O)[C@H](Cc2ccc(O)cc2)NC(=O)[C@H](Cc2ccccc2)NC(=O)CSC[C@@H](C(=O)NCC(N)=O)NC(=O)[C@H]([C@@H](C)O)NC(=O)[C@H](C(C)C)NC(=O)[C@H](CC(C)C)NC(=O)[C@H](CCN)NC(=O)[C@H]2CCCN2C(=O)[C@H](CCCN)NC(=O)[C@H](C(C)C)NC(=O)[C@H](Cc2ccc(-c3ccccc3)cc2)NC1=O [Example 1420] ({CH2CO}-FYDWL[Bip]V[Orn][dP][Dab]LVTCG-NH2; thioether N-14)
60 | CC(C)C[C@@H]1NC(=O)[C@H](Cc2c[nH]c3ccccc23)NC(=O)[C@H](CC(=O)O)NC(=O)[C@H](Cc2ccc(O)cc2)NC(=O)[C@H](Cc2ccccc2)NC(=O)CSC[C@@H](C(=O)N[C@@H](C)C(N)=O)NC(=O)[C@H](CO)NC(=O)[C@H](C(C)C)NC(=O)[C@H](CC(C)C)NC(=O)[C@H](CCN)NC(=O)[C@H]2CCCN2C(=O)[C@H](CCCN)NC(=O)[C@H](C(C)C)NC(=O)[C@H](Cc2ccc(-c3ccccc3)cc2)NC1=O [Example 1421] ({CH2CO}-FYDWL[Bip]V[Orn][dP][Dab]LVSCA-NH2; thioether N-14)
100 | CC(C)C[C@@H]1NC(=O)[C@H](Cc2c[nH]c3ccccc23)NC(=O)[C@H](CC(=O)O)NC(=O)[C@H](Cc2ccc(O)cc2)NC(=O)[C@H](Cc2ccccc2)NC(=O)CSC[C@@H](C(=O)NCC(N)=O)NC(=O)[C@H](CO)NC(=O)[C@H](C(C)C)NC(=O)[C@H](CC(C)C)NC(=O)[C@H](CCN)NC(=O)[C@H]2CCCN2C(=O)[C@H](CCCN)NC(=O)[C@H](C(C)C)NC(=O)[C@H](Cc2ccc(-c3ccccc3)cc2)NC1=O [Example 1423] ({CH2CO}-FYDWL[Bip]V[Orn][dP][Dab]LVSCG-NH2; thioether N-14)
190 | CC(C)C[C@@H]1NC(=O)[C@H](Cc2c[nH]c3ccccc23)NC(=O)[C@H](CC(=O)O)NC(=O)[C@H](Cc2ccc(O)cc2)NC(=O)[C@H](CC(N)=O)NC(=O)CSC[C@@H](C(=O)N[C@@H](C)C(N)=O)NC(=O)[C@H](CO)NC(=O)[C@H](C(C)C)NC(=O)[C@H](CC(C)C)NC(=O)[C@H](CC(N)=O)NC(=O)[C@H]2CCCN2C(=O)[C@H](CCCN)NC(=O)[C@H](C(C)C)NC(=O)[C@H](Cc2ccc(-c3ccccc3)cc2)NC1=O [Example 1425] ({CH2CO}-NYDWL[Bip]V[Orn][dP]NLVSCA-NH2; thioether N-14)
